Converted amounts (≈) assume the structure as drawn. “Also recorded” adds a separate entry of the source. Read-outs that look alike come from different tables or passages of the source.
How the values were obtained:
[1] = system: chick chorioallantoic membrane (CAM); assay: Chick chorioallantoic membrane (CAM) angiogenesis assay; assay type: in vivo, White Leghorn chicken; details: for Number of microvessels on CAM, treatment (mean ± s): n = 6, implanted day 7, read day 11, microvessels 1 to 100 μm in diameter; for Anti-angiogenesis effect on CAM (in words): doses of 10 μg/egg and 40 μg/egg
Procedure: Fertilized White Leghorn chicken eggs, provided by the Chinese Academy of Agricultural Sciences, were placed in an incubator as soon as embryogenesis started and were kept under constant humidity of 65% at 37 °C. On day 7, a square window was opened on the shell and physiological saline (0.1 mL) was injected in to detach the shell membrane. Then gelatin sponges carrying the TMP stimulator derivatives at 10 μg/egg and 40 μg/egg were implanted, respectively. The control group was treated with physiological saline. The windows were sealed with medical adhesive tape and the incubation went on till the experiment day. The above steps were performed under sterile conditions. On the 11th day, the tapes were removed and the entire CAM was detached after tissue fixation with methanol/acetone (1:1, v/v). Then we used computer-assisted image tracking to obtain absolute values for the number of microvessels which were 1 to 100 μm in diameter. Data were analyzed using the t-test option of the of Statistics Analysis System, the values were expressed as mean ± s of 6 observations and P < 0.05 was considered significant.

[2] = system: A2780 human cancer cell line; assay: MTT anti-proliferation assay, A2780; assay type: cell-based; details: for IC50: Homo sapiens, read-out: IC50 A2780
Procedure: (§1) The cytotoxicities of these compounds were tested on five cancer cell lines by the standard MTT assay. […] The growing tumor cells at a density 10^4 cells/mL were exposed to various concentrations of the tested drugs and incubated in a 96-well microtiter plate for 96 h (37 °C, 5% CO2). After MTT solution (20 μL, 5 mg/mL) was added to each well, the plate was incubated for a further 4 h. Then the media was removed. Formazan crystals were dissolved with DMSO (150 μL). After mixing well, the absorbance was quantified at 570 nm with a BIORAD 550 spectrophotometer. Wells containing no drugs were used as blanks. […] Tumor cell growth inhibitory rate was calculated in the following equation (1): [drawing 3] (1)

[3] = system: A-549 human cancer cell line; assay: MTT anti-proliferation assay, A549; assay type: cell-based; details: for IC50: Homo sapiens, read-out: IC50 A549
Procedure: as §1

[4] = system: BGC-823 human cancer cell line; assay: MTT anti-proliferation assay, BGC-823; assay type: cell-based; details: for IC50: Homo sapiens, read-out: IC50 BGC-823
Procedure: as §1

[5] = system: Bel-7402 human cancer cell line; assay: MTT anti-proliferation assay, Bel-7402; assay type: cell-based; details: for IC50: Homo sapiens, read-out: IC50 Bel 7402
Procedure: as §1

[6] = system: HCT-8 human cancer cell line; assay: MTT anti-proliferation assay, HCT-8; assay type: cell-based; details: for IC50: Homo sapiens, read-out: IC50 HCT-8
Procedure: as §1

[7] = Acute toxicity by oral administration in mice; assay type: in vivo; details: both sexes, Kunming, mouse, in vivo, 3 g/kg, oral administration
Procedure: (§2) Kunming mice (Beijing Vital River Laboratory Animal Technology Company Limited, China) of both sexes, weighing 18–22 g, were divided into […] matched in weight and size. The mice were placed in cages and kept under standard environmental conditions with a standard rodent diet and water ad libitum under a 12 h light-dark cycle. They were deprived of food for 24 h but allowed free access to tap water throughout the experiments. This research was carried out in accordance with the “Regulation for the Administration of Affairs Concerning Experimental Animals” (State Council of China, 1988).
(§3) The maximum suspended dose (75 mg/mL) of 5 was prepared in bean oil solution, then one group of 20 mice of both sexes were administered the maximum tolerated dose (0.4 mL/10 g) by oral administration. The other 20 mice, the control group, were gave bean oil (0.4 mL/10 g) via gavage.The general behavior of the mice was observed continuously for 1 h after the treatment and then intermittently for 4 h, and thereafter over a period of 24 h. The mice were further observed for up to 14 days following treatment for any signs of toxicity and deaths, and the latency of death. Behavioral, toxic effects and mortality response were recorded.

Kunming mice = assay: Acute toxicity by oral administration in mice; assay type: in vivo; details: oral (gavage) 3 g/kg in bean oil, observed two weeks
Procedure: as §2, §3

[8] = A2780, MTT, 96 h exposure, maximal tested concentration 10.0 ig/mL
[9] = A549, MTT, 96 h exposure, maximal tested concentration 10.0 ig/mL
[10] = BGC-823, MTT, 96 h exposure, maximal tested concentration 10.0 ig/mL
[11] = Bel-7402, MTT, 96 h exposure, maximal tested concentration 10.0 ig/mL
[12] = HCT-8, MTT, 96 h exposure, maximal tested concentration 10.0 ig/mL
[13] = MTT, 96 h exposure, maximal tested concentration 10.0 ig/mL

Row | Compound | IC50 [2, 8] [µg/mL] | IC50 [3, 9] [µg/mL] | IC50 [4, 10] [µg/mL] | IC50 [5, 11] [µg/mL] | IC50 [6, 12] [µg/mL] | Number of microvessels on CAM, treatment (mean ± s) ([1]; dose 10 μg/egg) | Number of microvessels on CAM, treatment (mean ± s) ([1]; dose 40 μg/egg) | also measured
1 | 1,7-bis(4-(3,5,6-Trimethylpyrazin-2-yl)-3-methoxyphenyl)-1,6-heptadiene-3,5-dione [Compound 4] |  |  |  |  |  | 3.8 ± 2.79 | 1.4 ± 1.22 | Anti-angiogenesis effect on CAM (in words) [1]: dramatically block the growth of new vessels; IC50 A2780 [2, 13]: 5.540 µg/mL; IC50 A549 [3, 13]: 5.890 µg/mL; IC50 BGC-823 [4, 13]: 5.472 µg/mL; IC50 Bel 7402 [5, 13]: 6.391 µg/mL; IC50 HCT-8 [6, 13]: 7.106 µg/mL
2 | Cc1nc(C)c(COC(=O)CC[C@@H](C)C2CCC3C4CCC5C[C@H](O)CCC5(C)C4C[C@H](O)C32C)nc1C (stereo partly drawn) [Compound 5, 3 α,12α-Dihydroxy-5β-dholanic acid-3,5,6-trimethylpyrazin-2-methyl ester] | 6.62 (≈ 12.6 µM) | 6.69 (≈ 12.7 µM) | 6.66 (≈ 12.6 µM) | 8.01 (≈ 15.2 µM) | 7.43 (≈ 14.1 µM) | 4.8 ± 3.71 | 7.5 ± 3.40 | LD50 at 14 days [7]: > 3000 mg/kg; MTD at 14 days ([7]; read-out: Maximum tolerated dose): 3000 mg/kg; Deaths or signs of toxicity (Kunming mice): no deaths or signs of toxicity observed; also recorded: no toxicity; Anti-angiogenesis effect on CAM (in words) [1]: dramatically block the growth of new vessels
3 | Cc1nc(C)c(COC(=O)CC[C@@H](C)C2CCC3C4C(C[C@H](O)C32C)C2(C)CC[C@@H](O)CC2C[C@H]4O)nc1C (stereo partly drawn) [Compound 6, 3α,7α,12α-Trihydroxy-5β-cholanic acid-3,5,6-trimethylpyrazin-2-methyl ester] | > 10 | > 10 | > 10 | > 10 | > 10 | 6.2 ± 2.40 | 5.7 ± 2.07 | 
4 | C=C(CC[C@@H](C(=O)O)[C@H]1[C@H](O)C[C@@]2(C)C3=C(CC[C@]12C)[C@@]1(C)CC[C@H](OC(C)=O)C(C)(C)[C@@H]1CC3)C(C)C [PA, pachymic acid] | > 10 | > 10 | > 10 | > 10 | > 10 |  |  | 
5 | COc1cc(/C=C/C(=O)CC(=O)/C=C/c2ccc(O)c(OC)c2)ccc1O [CU, curcumin] | 6.52 (≈ 17.7 µM) | 6.52 (≈ 17.7 µM) | 6.81 (≈ 18.5 µM) | 6.5 (≈ 17.6 µM) | 6.28 (≈ 17 µM) |  |  | 
6 | C=C(CCC(C(=O)O)[C@H]1[C@H](O)C[C@@]2(C)C3=CC[C@H]4C(C)(C)[C@@H](OC(C)=O)CC[C@]4(C)C3=CC[C@]12C)C(C)C (stereo partly shown) [DPA, dehydropachymic acid] |  |  |  |  |  |  |  | IC50 A2780 [2, 13]: — (IC50 > 10.0 ig/mL); IC50 A549 [3, 13]: — (IC50 > 10.0 ig/mL); IC50 BGC-823 [4, 13]: — (IC50 > 10.0 ig/mL); IC50 Bel 7402 [5, 13]: — ^a (IC50 > 10.0 ig/mL); IC50 HCT-8 [6, 13]: — (IC50 > 10.0 ig/mL)
7 | C=C(CCC(C(=O)OCc1nc(C)c(C)nc1C)C1[C@H](O)C[C@@]2(C)C3=CCC4C(C)(CCC(OC(C)=O)C4(C)C)C3=CCC12C)C(C)C (stereo partly drawn) [Compound 9, 3β-Acetoxy-16α-hydroxy-lanosta-7,9(11),24(31)-trien-21-oic acid-3,5,6-trimethylpyrazin-2-methyl ester] | > 10 | 8.77 (≈ 13.3 µM) | > 10 | > 10 | > 10 | 7.7 ± 2.16 | 5.7 ± 1.21 | 
8 | C=C(CCC(C(=O)OCc1nc(C)c(C)nc1C)C1[C@H](O)C[C@@]2(C)C3=C(CCC12C)C1(C)CCC(OC(C)=O)C(C)(C)C1CC3)C(C)C (stereo partly drawn) [Compound 8, 3β-Acetoxy-16α-hydroxy-lanosta-8,24(31)-diene-21-oic acid-3,5,6-trimethylpyrazin-2-methyl ester] | > 10 | > 10 | > 10 | > 10 | > 10 | 9.7 ± 3.98 | 10.8 ± 5.12 | 
9 | O=C(O)/C=C/c1ccccc1 [CIA, cinnamic acid] | > 10 | > 10 | > 10 | > 10 | > 10 |  |  | 
10 | C[C@H](CCC(=O)O)[C@H]1CC[C@H]2[C@@H]3[C@H](O)C[C@@H]4C[C@H](O)CC[C@]4(C)[C@H]3C[C@H](O)[C@]12C [CA, cholic acid] |  |  |  |  |  |  |  | IC50 ([2]; A2780, 96 h): > 10 µg/mL; IC50 ([3]; A549, 96 h): > 10 µg/mL; IC50 ([4]; BGC-823, 96 h): > 10 µg/mL; IC50 ([5]; Bel-7402, 96 h): > 10 µg/mL; IC50 ([6]; HCT-8, 96 h): > 10 µg/mL

Second part, led by results:

Row | IC50 [2, 8] [µg/mL] | IC50 [3, 9] [µg/mL] | IC50 [4, 10] [µg/mL] | IC50 [5, 11] [µg/mL] | IC50 [6, 12] [µg/mL] | Compound | Number of microvessels on CAM, treatment (mean ± s) ([1]; dose 10 μg/egg) | Number of microvessels on CAM, treatment (mean ± s) ([1]; dose 40 μg/egg) | also measured
11 | > 10 | > 10 | > 10 | 7.61 (≈ 12.9 µM) | 9.27 (≈ 15.7 µM) | Cc1nc(C)c(COC(=O)C23CCC(C)(C)CC2C2=CCC4C5(C)CCC(O)C(C)(C)C5CCC4(C)[C@]2(C)CC3)nc1C (stereo partly drawn) [Compound 7, 3β-Hydroxyolea-12-en-28-oic acid-3,5,6-trimethylpyrazin-2-methyl ester] | 12.0 ± 2.90 | 9.5 ± 4.55 | 
12 | > 10 | > 10 | > 10 | > 10 | > 10 | Cc1nc(C)c(COC(=O)[C@@]2(C)CCC3(C)CC[C@]4(C)C(=CC(=O)C5C6(C)CCC(O)C(C)(C)C6CCC54C)C3C2)nc1C (stereo partly drawn) [Compound 10, (3β,18α,20β)-3-Hydroxy-11-oxoolean-12-en-29-oicacid-3,5,6-trimethylpyrazin-2-methyl ester] | 9.5 ± 1.76 | 9.8 ± 2.14 | 
13 | > 10 | > 10 | > 10 | > 10 | > 10 | C[C@H](CCC(=O)O)[C@H]1CC[C@H]2[C@@H]3CC[C@@H]4C[C@H](O)CC[C@]4(C)[C@H]3C[C@H](O)[C@]12C [DA, deoxycholic acid] |  |  | 
14 | > 10 | > 10 | > 10 | > 10 | > 10 | Cc1nc(C)c(C)nc1C [TMP, ligustrazine] |  |  | 
15 | > 10 | > 10 | > 10 | > 10 | > 10 | CC1(C)CC[C@]2(C(=O)O)CC[C@]3(C)C(=CC[C@@H]4[C@@]5(C)CC[C@H](O)C(C)(C)[C@@H]5CC[C@]43C)[C@@H]2C1 [OA, oleanolic acid] |  |  | 
16 | > 10 | 7.83 (≈ 27.7 µM) | > 10 | 9.4 (≈ 33.3 µM) | > 10 | Cc1nc(C)c(COC(=O)/C=C/c2ccccc2)nc1C [Compound 11, 3-Phenyl-2-propenoic acid-3,5,6-trimethylpyrazin-2-methyl ester] | 10.3 ± 2.73 | 7.0 ± 3.03 | 
17 | > 10 | > 10 | > 10 | > 10 | > 10 | CC1(C)[C@@H](O)CC[C@]2(C)[C@H]3C(=O)C=C4[C@@H]5C[C@@](C)(C(=O)O)CC[C@]5(C)CC[C@@]4(C)[C@]3(C)CC[C@@H]12 [GA, glycyrrhetinic acid] |  |  | 

— article PMC6268357, “Synthesis and Biological Evaluation of New Ligustrazine Derivatives as Anti-Tumor Agents” (Molecules, 2012)
